# Values joined by “and” are separate entries in the source; they are usually repeats but may differ in a detail not shown here. Identical values can stand only once.
# System: VCA0107-GFP
# Test: Qrr4 regulation of VCA0107-GFP translational fusion, anhydrous tetracycline-inducible qrr4 (S4 Fig)
# Format: cell-based, E. coli
# Description: We examined whether Qrr regulation of CqsS is direct or indirect using a CqsS-mKATE2 translational fusion in E. coli expressing inducible qrr4. We reasoned that, if CqsS production is controlled by Qrr4, repression of CqsS-mKATE2 should occur when Qrr4 is induced. We verified that our system works by showing that inducible Qrr4 is capable of repressing a previously-identified direct target, VCA0107-GFP [24]. However, no repression of CqsS-mKATE2 occurred following induction of Qrr4 (S4 Fig).
# To assay qrr4 regulation of cqsS, the relative fluorescence of translational fusions (VCA0107B-GFP and CqsS-mKATE2) was measured in E. coli BWR1. E. coli carrying one of these plasmids also contained either an empty plasmid (pZA31) or pZA31 carrying anhydrous tetracycline-inducible qrr4. Qrr4-mediated repression of CqsS-mKATE2 was assessed. VCA0107-GFP is a known Qrr4-repressed target and was used as a positive control to show the system was functional. Overnight cultures were diluted 1:50 into fresh medium and aliquotted in triplicate into 96 well plates. […] OD600 and fluorescence were assessed using an Envision 2103 Multilabel Reader (Perkin Elmer).
# Supplementary file pgen.1006826.s008.tiff: S4 Fig Qrr4 indirectly regulates cqsS. Fluorescence from plasmid-encoded VCA0107-GFP (circles) and CqsS-mKATE2 (squares) was measured in E. coli. Either an empty vector (pZA31-lucNB, black) or pZA31-lucNB carrying tetracycline-inducible qrr4 (pYS245, red) was present in each strain. VCA0107 encodes a type VI secretion system component that is regulated by Qrr4. Data represent two experiments conducted in triplicate. Error bars represent standard errors of the mean. (TIFF) Click here for additional data file.
smiles,measurement,setting,value
Cc1c2c(c(O)c3c(O)cccc13)C(=O)[C@]1(O)C(=O)C(C(N)=O)=C(O)[C@@H](N(C)C)[C@@H]1C2 [aTc],"Relative reporter signal, experimental averages","pVC107 Qrr4, aTc 0.0976562 ng/ml (normalization point)",1
same,"Relative reporter signal, experimental averages","pVC107 Qrr4, aTc 0.195312 ng/ml, normalized to 0.0976562 ng/ml",1.025 and 0.934
same,"Relative reporter signal, experimental averages","pVC107 Qrr4, aTc 0.390625 ng/ml, normalized to 0.0976562 ng/ml",1.044 and 1.031
same,"Relative reporter signal, experimental averages","pVC107 Qrr4, aTc 0.78125 ng/ml, normalized to 0.0976562 ng/ml",1.069 and 1.04
same,"Relative reporter signal, single replicates","pVC107 Qrr4, aTc 1.5625 ng/ml",0.9829 and 1.022 and 1.084 and 1.082 and 1.066 and 1.076
same,"Relative reporter signal, experimental averages","pVC107 Qrr4, aTc 1.5625 ng/ml, normalized to 0.0976562 ng/ml",1.075 and 1.029
same,"Relative reporter signal, single replicates","pVC107 Qrr4, aTc 3.125 ng/ml",0.9883 and 0.983 and 1.044 and 1.076 and 1.038 and 1.063
same,"Relative reporter signal, experimental averages","pVC107 Qrr4, aTc 3.125 ng/ml, normalized to 0.0976562 ng/ml",1.059 and 1.005
same,"Relative reporter signal, single replicates","pVC107 Qrr4, aTc 6.25 ng/ml",0.8986 and 0.9025 and 1.018 and 1.038 and 1.0458 and 1.143
same,"Relative reporter signal, experimental averages","pVC107 Qrr4, aTc 6.25 ng/ml, normalized to 0.0976562 ng/ml",1.075 and 0.9397
same,"Relative reporter signal, single replicates","pVC107 Qrr4, aTc 12.5 ng/ml",0.8122 and 0.8585 and 0.963 and 0.9294 and 0.9674 and 1.0333
same,"Relative reporter signal, experimental averages","pVC107 Qrr4, aTc 12.5 ng/ml, normalized to 0.0976562 ng/ml",0.9767 and 0.8779
same,"Relative reporter signal, single replicates","pVC107 Qrr4, aTc 25 ng/ml",0.8439 and 0.8636 and 0.8571 and 0.6965 and 0.6285 and 0.7212
same,"Relative reporter signal, experimental averages","pVC107 Qrr4, aTc 25 ng/ml, normalized to 0.0976562 ng/ml",0.6821 and 0.8548
same,"Relative reporter signal, single replicates","pVC107 Qrr4, aTc 50 ng/ml",0.8785 and 0.8105 and 0.7819 and 0.6416 and 0.6171 and 0.6104
same,"Relative reporter signal, experimental averages","pVC107 Qrr4, aTc 50 ng/ml, normalized to 0.0976562 ng/ml",0.623 and 0.8236
same,"Relative reporter signal, single replicates","pVC107 Qrr4, aTc 100 ng/ml",0.9222 and 0.8261 and 0.8207 and 0.6781 and 0.6674 and 0.7021
same,"Relative reporter signal, experimental averages","pVC107 Qrr4, aTc 100 ng/ml, normalized to 0.0976562 ng/ml",0.6825 and 0.8563
same,"Relative reporter signal, single replicates","pVC107 Qrr4, aTc 200 ng/ml",0.9029 and 0.8931 and 0.8706 and 0.7542 and 0.8262 and 0.8413
same,"Relative reporter signal, experimental averages","pVC107 Qrr4, aTc 200 ng/ml, normalized to 0.0976562 ng/ml",0.8072 and 0.8889
same,"Relative reporter signal, experimental averages","pVC107 vector, aTc 0.0976562 ng/ml (normalization point)",1
same,"Relative reporter signal, experimental averages","pVC107 vector, aTc 0.195312 ng/ml, normalized to 0.0976562 ng/ml",1.1928 and 0.9542
same,"Relative reporter signal, experimental averages","pVC107 vector, aTc 0.390625 ng/ml, normalized to 0.0976562 ng/ml",1.239 and 0.9963
same,"Relative reporter signal, single replicates","pVC107 vector, aTc 0.78125 ng/ml",1.048 and 0.979 and 1.04 and 0.9279
same,"Relative reporter signal, experimental averages","pVC107 vector, aTc 0.78125 ng/ml, normalized to 0.0976562 ng/ml",1.09 and 0.9823
same,"Relative reporter signal, single replicates","pVC107 vector, aTc 1.5625 ng/ml",1.061 and 1.021 and 0.9897 and 0.9644 and 1.121 and 1.094
same,"Relative reporter signal, experimental averages","pVC107 vector, aTc 1.5625 ng/ml, normalized to 0.0976562 ng/ml",1.092 and 0.9917
same,"Relative reporter signal, single replicates","pVC107 vector, aTc 3.125 ng/ml",0.9263 and 0.9693 and 1.011 and 0.9278 and 1.0391 and 1.108
same,"Relative reporter signal, experimental averages","pVC107 vector, aTc 3.125 ng/ml, normalized to 0.0976562 ng/ml",1.024 and 0.9695
same,"Relative reporter signal, single replicates","pVC107 vector, aTc 6.25 ng/ml",0.9938 and 0.9834 and 0.9842 and 0.9532 and 1.085 and 1.105
same,"Relative reporter signal, experimental averages","pVC107 vector, aTc 6.25 ng/ml, normalized to 0.0976562 ng/ml",1.061 and 0.9736
same,"Relative reporter signal, single replicates","pVC107 vector, aTc 12.5 ng/ml",0.9967 and 0.9285 and 1.002 and 0.9658 and 1.022 and 1.055
same,"Relative reporter signal, experimental averages","pVC107 vector, aTc 12.5 ng/ml, normalized to 0.0976562 ng/ml",1.025 and 0.9655
same,"Relative reporter signal, single replicates","pVC107 vector, aTc 25 ng/ml",1.488 and 0.9589 and 0.9637 and 0.9614 and 1.035 and 1.177
same,"Relative reporter signal, experimental averages","pVC107 vector, aTc 25 ng/ml, normalized to 0.0976562 ng/ml",1.233 and 0.9614
same,"Relative reporter signal, single replicates","pVC107 vector, aTc 50 ng/ml",1.1512 and 1.025 and 1.023 and 0.9608 and 1.174 and 1.186
same,"Relative reporter signal, experimental averages","pVC107 vector, aTc 50 ng/ml, normalized to 0.0976562 ng/ml",1.17 and 1.003
same,"Relative reporter signal, single replicates","pVC107 vector, aTc 100 ng/ml",1.032 and 0.8995 and 0.9791 and 1.0414 and 1.344 and 1.183
same,"Relative reporter signal, experimental averages","pVC107 vector, aTc 100 ng/ml, normalized to 0.0976562 ng/ml",1.1863 and 0.9733
same,"Relative reporter signal, single replicates","pVC107 vector, aTc 200 ng/ml",1.427 and 1.005 and 1.106 and 1.055 and 1.369 and 1.3707
same,"Relative reporter signal, experimental averages","pVC107 vector, aTc 200 ng/ml, normalized to 0.0976562 ng/ml",1.389 and 1.0553

# From publication PMC5467912, “Asymmetric regulation of quorum-sensing receptors drives autoinducer-specific gene expression programs in Vibrio cholerae” (PLoS Genetics, 2017)
